The results in this text go back to patent US12428433B2, “Fluorine-containing heterocyclic derivatives with macrocyclic structure and use thereof” (ScinnoHub Pharmaceutical Co., Ltd, priority 2019, dated 2025).

Molecules are shown by their SMILES. Where two headings read alike, the source gives them in different places. Some results are limits rather than exact numbers.

The target of series [1] is TRKa (Homo sapiens (Human), UniProt P04629). Kind of series: Kinase inhibitory activity (Caliper mobility shift), TRKa. The format is biochemical. Here is the method: (§1) […] (Shanghai) Co., Ltd. was commissioned to complete the testing example. […] 3.1 A tested compound was accurately weighed and dissolved in 100% DMSO to prepare into a 10 mM solution. […] 3.2.3 A kinase solution of 2.5 times final concentration was prepared with 1×kinase buffer. […] 3.2.5 The reaction plate was shaken and mixed evenly, and then incubated at room temperature for 10 minutes. 3.2.6 Mixed solutions of ATP and kinase substrate 22 of 5 times and 3 times final concentrations were prepared with 1×kinase buffer. 3.2.7 15 μL of mixed solution of ATP and substrate of 5 times or 3 times final concentration was added. 3.2.8 The 384-well plate was centrifuged at 1,000 rpm for 30 seconds, shaken and mixed evenly, and then incubated at room temperature for corresponding time. 3.2.9 The kinase reaction was terminated. 3.2.10 A conversion rate was read by the microplate reader Caliper EZ Reader. Calculation Formula Inhibition rate %=(conversion rate % maximum-conversion rate % sample)/(conversion rate % maximum-conversion rate % minimum)×100 wherein the conversion rate % sample was: a reading number of a conversion rate of a sample; the conversion rate % minimum was: an average value of the negative control well, which represented a reading number of a conversion rate without an enzyme activity well; and the conversion rate % maximum was: an average value of a ratio of the positive control well, which represented a reading number of a conversion rate without a compound inhibition well.
TRKa, sequence (P04629 33-796): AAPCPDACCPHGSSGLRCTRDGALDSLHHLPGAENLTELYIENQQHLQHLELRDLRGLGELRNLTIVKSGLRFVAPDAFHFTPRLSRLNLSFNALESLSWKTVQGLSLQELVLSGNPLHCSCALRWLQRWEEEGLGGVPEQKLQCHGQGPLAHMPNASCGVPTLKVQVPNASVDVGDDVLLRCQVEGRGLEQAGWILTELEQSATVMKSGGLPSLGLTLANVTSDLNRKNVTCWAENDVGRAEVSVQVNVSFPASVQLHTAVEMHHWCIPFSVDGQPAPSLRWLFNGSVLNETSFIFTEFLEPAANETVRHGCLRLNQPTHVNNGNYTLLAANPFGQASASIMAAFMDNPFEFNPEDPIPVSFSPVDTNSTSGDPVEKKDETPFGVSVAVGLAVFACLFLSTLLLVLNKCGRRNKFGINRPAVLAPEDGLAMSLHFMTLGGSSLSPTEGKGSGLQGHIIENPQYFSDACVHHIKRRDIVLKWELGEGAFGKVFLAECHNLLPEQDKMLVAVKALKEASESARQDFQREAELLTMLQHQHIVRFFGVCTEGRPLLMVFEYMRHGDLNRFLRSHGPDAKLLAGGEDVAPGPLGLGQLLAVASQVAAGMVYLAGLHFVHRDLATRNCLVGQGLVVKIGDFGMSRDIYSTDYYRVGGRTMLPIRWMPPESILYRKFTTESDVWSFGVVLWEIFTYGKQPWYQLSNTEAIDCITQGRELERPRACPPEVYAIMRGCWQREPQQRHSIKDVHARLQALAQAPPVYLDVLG

Series [2] concerns the target TRKA(G595R) (Homo sapiens (Human), UniProt P04629, G595R). In words: Kinase inhibitory activity (Caliper mobility shift), TRKA(G595R). The format is biochemical. Here is the method:
as §1

The target of series [3] is TRKC(G623R) (Homo sapiens (Human), UniProt Q16288, G623R). In words: Kinase inhibitory activity (Caliper mobility shift), TRKC(G623R). The format is biochemical. The protocol:
Sundia Meditech (Shanghai) Co., Ltd. was commissioned to complete the testing example.
3.1 A tested compound was accurately weighed and dissolved in 100% DMSO to prepare into a 10 mM solution.
250 nL of the compound of 100 times final concentration was transferred to a reaction plate OptiPlate-384F by a dispenser Echo 550.
3.2.3 A kinase solution of 2.5 times final concentration was prepared with 1×kinase buffer.
3.2.4 10 μL of kinase solution of 2.5 times final concentration was added into a compound well and a positive control well respectively; and 10 μL of 1×kinase buffer was added into a negative control well.
3.2.5 The reaction plate was shaken and mixed evenly, and then incubated at room temperature for 10 minutes.
3.2.6 Mixed solutions of ATP and kinase substrate 22 of 5 times and 3 times final concentrations were prepared with 1×kinase buffer.
3.2.7 15 μL of mixed solution of ATP and substrate of 5 times or 3 times final concentration was added.
3.2.8 The 384-well plate was centrifuged at 1,000 rpm for 30 seconds, shaken and mixed evenly, and then incubated at room temperature for corresponding time.
3.2.9 The kinase reaction was terminated.
3.2.10 A conversion rate was read by the microplate reader Caliper EZ Reader.
Calculation Formula Inhibition rate %=(conversion rate % maximum−conversion rate % sample)/(conversion rate % maximum−conversion rate % minimum)×100
wherein the conversion rate % sample was: a reading number of a conversion rate of a sample; the conversion rate % minimum was: an average value of the negative control well, which represented a reading number of a conversion rate without an enzyme activity well; and the conversion rate % maximum was: an average value of a ratio of the positive control well, which represented a reading number of a conversion rate without a compound inhibition well.
Fitting of dose-effect curve: a log value of concentration was used as an X axis, a percentage inhibition rate was used as a Y axis, and the dose-effect curve was fitted by a log (inhibitor) vs. response-variable slope of the analysis software GraphPad Prism 5 (four-parameter model fitting), so as to obtain an IC50 value of each compound on enzyme activity.

The subject of series [4] is Ba/F3 EVT6-NTRK3-G623R. In words: In-vitro cell viability (CTG), NTRK mutant cells. The settings on record: Mus musculus, read-out: Ba/F3 EVT6-NTRK3-G623R IC50. The format is cell-based. The protocol: (§2) Hefei Precedo Biomedical Technology Co., Ltd. was commissioned to complete the testing example, and NTRK mutant cells used were constructed by this company.
(§3) Inhibitory effects of the compound of the present application on growth of three NTRK mutant cells (Ba/F3 LMNA-NTRK1-G667C, Ba/F3 EVT6-NTRK3-G623R and Ba/F3 LMNA-NTRK1-G595R) were measured.
(§4) Cells in logarithmic growth phase were collected and counted by a blood platelet counter, a cell concentration was adjusted to 3 to 6×10^4 cell/mL, 90 μL of cell suspension was added into a 96-well plate, and cells in the 96-well plate were cultured at 37° C. under 5% CO2 and 95% humidity overnight.
(§5) The to-be-tested compound was prepared into a 10 times drug solution in a medium containing 1% DMSO, with […] and the drug solution was diluted by 3 times in sequence to obtain drug solutions with 9 concentrations in total. […] 10 μL of prepared drug solution was added into each well of the 96-well plate in which the cells were inoculated. Then, 90 μL of medium containing 1% DMSO was added to obtain a drug solution with a highest concentration of 1 μM, and the drug solution was diluted by 3 times in sequence to obtain drug solutions with 9 concentrations in total. A final concentration of DMSO in each well was 0.1%, and three multiple wells were provided for the drug of each concentration. The cells in the 96-well plate in which the drug has been added were cultured at 37° C. under 5% CO2 and 95% humidity for 72 hours, and then subjected to CTG analysis.
(§6) An equal volume of CTG solution was added into each well, the 96-well plate was placed at room temperature for 20 minutes to stabilize a luminescence signal, and a luminescence value was read.
(§7) Data was analyzed by GraphPad Prism 7.0 software, and fitted by nonlinear S-curve regression to obtain a dose-effect curve, from which an IC50 value was calculated. Cell survival rate (%)=(Lum to-be-tested drug−Lum medium control)/(Lum cell control−Lum medium control)×100%.

Series [5] deals with Ba/F3 LMNA-NTRK1-G595R. Kind of series: In-vitro cell viability (CTG), NTRK mutant cells. The format is cell-based. The settings on record: Mus musculus, read-out: Ba/F3 LMNA-NTRK1-G595R IC50. Here is the method: as §2, §3, §4, §5, §6, §7
For series [6], the system named is Ba/F3 LMNA-NTRK1-G667C. Kind of series: In-vitro cell viability (CTG), NTRK mutant cells. The format is cell-based. To be noted: Mus musculus, read-out: Ba/F3 LMNA-NTRK1-G667C IC50. The protocol: as §2, §3, §4, §5, §6, §7
A short description of series [7]: Stability test in liver microsomes, human. The format is in vitro ADME. The settings on record: for half-life at 1 μM: 0.5 mg/mL. The protocol:
(§8) A stability of the compound of the present application in liver microsomes of human, rat and mouse was measured.
(§9) 3.1 A buffer and a liver microsome were prepared into an incubation solution according to the following table:
(§10) 3.2 The following two experiments were carried out respectively: a) incubation system added with coenzyme factor NADPH: 25 μL of NADPH (10 mM) was added into an incubation solution (mainly comprising a liver microsome and a phosphate buffer), so that final concentrations of the liver microsome and the NADPH were 0.5 mg/mL and […] respectively; and b) incubation system without coenzyme factor NADPH: 25 μL of phosphate buffer (100 mM) was added into the incubation solution, so that the final concentration of the liver microsome was 0.5 mg/mL. The incubation systems above were preheated at 37° C. for 10 minutes respectively.
(§11) 3.3 2.5 μL of positive control compound or a tested compound solution (100 μM) was added into the incubation systems described in “step 3.2” above respectively for reaction, and the positive control compound was verapamil (purchased from Sigma), so that a final concentration of the tested compound of the present application or the positive control compound was 1 μM. The incubation solution added with the compound was incubated in water at 37° C. in batches.
(§12) 3.4 30 μL of aliquot was taken from a reaction solution after 0.5 minute, 5 minutes, 15 minutes, 30 minutes and 45 minutes respectively, and the reaction was terminated by adding 5 times volume of cold acetonitrile containing 200 nM caffeine and 100 nM tolbutamide. The aliquot was centrifuged at a gravity acceleration of 3,220 g for 40 minutes, and 100 μL of supernatant was mixed with 100 μL of ultrapure water, and then used for LC-MS/MS analysis.
(§13) A peak area was determined by an extracted ion chromatogram. A slope value k was determined by linear regression of a remaining percentage of a parent drug relative to […] an incubation time curve.
(§14) In-vitro half-life periods (t1/2) were respectively calculated and determined according to the slope value, and an average value of the in-vitro half-life periods was converted into an in-vitro intrinsic clearance rate (CLint, represented by μL/min/mg protein).

A short description of series [8]: Stability test in liver microsomes, rat. The format is in vitro ADME. To be noted: for half-life at 1 μM: 0.5 mg/mL. Here is the method: as §8, §9, §10, §11, §12, §13, §14
(In general: Liver microsomes are vesicles of endoplasmic reticulum, rich in cytochrome P450 enzymes.)

The nature of series [9]: Stability test in liver microsomes, mouse. The format is in vitro ADME. The settings on record: for half-life at 1 μM: 0.5 mg/mL. The protocol:
as §8, §9, §10, §11, §12, §13, §14

TRKA(G595R), sequence (P04629 33-796 G595R): as the sequence (P04629 33-796) above, with G563R counted along it
TRKC(G623R), sequence (Q16288 32-839 G623R): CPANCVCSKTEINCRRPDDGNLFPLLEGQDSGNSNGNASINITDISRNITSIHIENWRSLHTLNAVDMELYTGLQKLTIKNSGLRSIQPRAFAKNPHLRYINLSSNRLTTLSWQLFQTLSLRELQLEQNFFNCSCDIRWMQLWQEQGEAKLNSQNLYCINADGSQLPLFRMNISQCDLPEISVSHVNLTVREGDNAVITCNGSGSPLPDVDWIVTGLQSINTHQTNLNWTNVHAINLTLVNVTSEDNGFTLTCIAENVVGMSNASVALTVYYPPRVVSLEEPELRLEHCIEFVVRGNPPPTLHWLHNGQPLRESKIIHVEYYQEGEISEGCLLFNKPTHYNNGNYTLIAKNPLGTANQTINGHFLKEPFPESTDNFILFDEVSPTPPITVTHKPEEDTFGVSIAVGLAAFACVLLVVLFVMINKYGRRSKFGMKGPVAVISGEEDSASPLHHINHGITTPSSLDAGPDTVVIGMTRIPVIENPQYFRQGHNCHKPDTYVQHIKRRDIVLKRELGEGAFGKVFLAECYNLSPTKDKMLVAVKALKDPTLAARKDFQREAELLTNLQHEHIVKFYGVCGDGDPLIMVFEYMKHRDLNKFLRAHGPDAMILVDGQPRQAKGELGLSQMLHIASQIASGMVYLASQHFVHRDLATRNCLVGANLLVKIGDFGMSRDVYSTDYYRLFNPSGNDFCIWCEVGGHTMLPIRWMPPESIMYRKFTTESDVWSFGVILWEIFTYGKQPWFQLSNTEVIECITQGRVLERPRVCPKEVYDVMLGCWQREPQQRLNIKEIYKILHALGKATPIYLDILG

In general, microsomal CLint refers to a measure of how fast metabolising enzymes remove a compound, apart from limits set by blood flow. Read a low microsomal CLint as slow turnover. As usually defined, the half-life is how long it takes for the measured level to halve. As to `C[C@@H]1CCc2ncc(F)cc2[C@H]2CCCN2c2nc3c(cnn3cc2F)C(=O)N1` [Example 1], the IC50 in series [1] was determined as 0.62 nM; in [2], 2.5 nM; in [3], 3.7 nM; in series [4] (BaF3, 72 h) it was 190 nM; in series [5] (BaF3, 72 h), 13 nM; in series [6] (BaF3, 72 h), 5.9 nM. Moreover, the microsomal CLint at 1 μM is 170 µL/min/mg in [7], 189 µL/min/mg in series [8] and 82.7 µL/min/mg in series [9]. In addition, the half-life at 1 μM was determined as 8.17 min in [7], 7.35 min in [8] and 16.8 min in series [9]. Besides, the entries for the “% Remaining(45 min)” value in series [7], in [8] and in [9] were 4.24%, 3.30% and 16.15%, respectively.

On to `C[C@H]1Nc2ccn3nc(F)c(c3n2)C(=O)N[C@H]2C[C@H](C2)Oc2ncc(F)cc21` [Example 6, (3^1S,3^3S,6^3Z,6^4E,8R)-1^5,6^2-difluoro-8-methyl-2-oxo-4,7-diaza-6(3,5)-pyrazolo[1,5-a]pyrimidine-1(2,3)-pyridine-3(1,3)-cyclobutylcyclooctane-5-one], for which the IC50 stood at 0.52 nM in series [1]; 2.9 nM in series [2]; 8.2 nM in series [3]; 536 nM in series [4] (BaF3, 72 hours, CTG); 116 nM in series [5] (BaF3, 72 hours, CTG); 40 nM in [6] (BaF3, 72 hours, CTG).

As for `C[C@@H]1CCc2ncc(F)cc2[C@H]2CCCN2c2ccn3ncc(c3n2)C(=O)N1` [LOXO-195, reference compound], the IC50 was 145 nM in series [4] (BaF3, 72 hours, CTG); 12 nM in series [5] (BaF3, 72 hours, CTG); 6.3 nM in series [6] (BaF3, 72 hours, CTG). Besides, the CLint in series [7] came out at 82.65 µL/min/mg. For the same compound, the half-life at 1 μM in series [7] was determined as 16.8 min; in [8], 9.12 min; in [9], 7.45 min. Moreover, the “% Remaining(45 min)” value in series [7] worked out at 16.23%; in [8], 4.88%; in [9], 1.98%. In addition, the values for the intrinsic clearance (microsomal CLint) at 1 μM in series [8] and in series [9] were 152 µL/min/mg and 186 µL/min/mg, respectively.

Take `C[C@H]1Nc2ccn3ncc(c3n2)C(=O)N[C@H]2C[C@H](C2)Oc2ncccc21` [Example 4, (3^1S,3^3S,6^3E,6^4E,8R)-8-methyl-2-oxo-4,7-diaza-6(3,5)-pyrazolo[1,5-a]pyrimidine-1(2,3)-pyridine-3(1,3)-cyclobutylcyclooctane-5-one]: the IC50 in [1] was 320 nM; in [2] it was more than 1000 nM; in [3], more than 1000 nM; in [4] (BaF3, 72 hours, CTG), more than 1000 nM; in [5] (BaF3, 72 hours, CTG), more than 1000 nM; in [6] (BaF3, 72 hours, CTG) it was more than 1000 nM.

In the case of `C[C@H]1Nc2nc3c(cnn3cc2F)C(=O)NC2CC(C2)Oc2ncccc21` [Example 5, (3^1S,3^3S,6^3E,6^4E,8R)-6^6-fluoro-8-methyl-2-oxo-4,7-diaza-6(3,5)-pyrazolo[1,5-a]pyrimidine-1(2,3)-pyridine-3(1,3)-cyclobutylcyclooctane-5-one], the IC50 in series [1] was 127 nM; in series [2] it was 561 nM; in series [3] it was more than 1000 nM; in series [4] (BaF3, 72 hours, CTG), more than 1000 nM; in series [5] (BaF3, 72 hours, CTG), more than 1000 nM; in [6] (BaF3, 72 hours, CTG), more than 1000 nM.
